In ChEMBL document CHEMBL5030554, “Design, synthesis and biological evaluation of novel (E)-2-benzylidene-N-(3-cyano-4,5,6,7-tetrahydrobenzo[b]thiophen-2-yl)hydrazine-1-carboxamide derivatives as α-glucosidase inhibitors” (Bioorg Med Chem Lett, 2021):
pIC50: −log10 of the molar value. Active and inactive are the calls of the source. The calls are words filed in the database; no cut-off is given here.

Experiments:
[1] = system: Saccharomyces cerevisiae; assay: Inhibition of Saccharomyces cerevisiae alpha-glucosidase assessed as decrease in release of p-nitrophenol at 100 uM using pNPG as substrate preincubated for 15 min followed by substrate addition and measured after 5 mins by spectrophotometric method relative to control; details: time 20.0 min
[2] = Inhibition of Saccharomyces cerevisiae alpha-glucosidase assessed as decrease in release of p-nitrophenol using pNPG as substrate preincubated for 15 min followed by substrate addition and measured after 5 mins by spectrophotometric method
[3] = Cytotoxicity against human L02 cells assessed as cell viability at 100 uM by MTT assay relative to control; format: cell-based; details: read-out: Activity
[4] = Cytotoxicity against human HepG2 cells assessed as cell viability at 100 uM by MTT assay relative to control; format: cell-based; details: read-out: Activity
[5] = organism: Homo sapiens; assay: Binding affinity to alpha-glucosidase (unknown origin) assessed as quenching of intrinsic tryptophan fluorescence of the enzyme by FRET assay
[6] = organism: Rattus norvegicus; assay: Hypoglycemic activity in sucrose-treated Sprague-Dawley rat assessed as reduction in blood glucose level measured after 30 mins by oral sucrose tolerance test; format: functional, organism-based
[7] = organism: Homo sapiens; assay: Non-competitive inhibition of alpha-glucosidase (unknown origin) assessed as decrease in Vmax with constant Km using varying levels of PNP glycoside as substrate preincubated for 30 mins followed by substrate addition and measured for 60 seconds by Lineweaver-Burk plot analysis
[8] = organism: Rattus norvegicus; assay: Hypoglycemic activity in sucrose-treated Sprague-Dawley rat assessed as reduction in blood glucose AUC measured after 2 hrs by oral sucrose tolerance test; format: functional, organism-based

CC(C)c1ccc(/C=N/NC(=O)Nc2sc3c(c2C#N)CCCC3)cc1
inhibition [1]: 64.2% | pIC50 [2]: 4.31

COc1ccc(/C=N/NC(=O)Nc2sc3c(c2C#N)CCCC3)cc1O
inhibition [1]: 27.8%

Cc1cccc(/C=N/NC(=O)Nc2sc3c(c2C#N)CCCC3)c1C
inhibition [1]: 59.5% | pIC50 [2]: 4.31

COc1cc(/C=N/NC(=O)Nc2sc3c(c2C#N)CCCC3)cc(OC)c1
inhibition [1]: 36.4%

CCN(CC)c1ccc(/C=N/NC(=O)Nc2sc3c(c2C#N)CCCC3)c(O)c1
inhibition [1]: 64.2% | pIC50 [2]: 4.49

COc1cccc2c1C(=O)c1c(O)c3c(c(O)c1C2=O)C[C@@](O)(C(=O)CO)C[C@@H]3O[C@H]1C[C@H](N)[C@H](O)[C@H](C)O1 [DOXORUBICIN]
viability at 100 µM [3]: 4% | viability at 100 µM [4]: 4%

COc1ccc(/C=N/NC(=O)Nc2sc3c(c2C#N)CCCC3)cc1
inhibition [1]: 18.8%

N#Cc1c(NC(=O)NCc2ccccc2)sc2c1CCCC2
pIC50 [2]: 4.20

CCN(CC)c1ccc(/C=N/NC(=O)Nc2sc3c(c2C#N)CCCC3)cc1
inhibition [1]: 77.3% | pIC50 [2]: 4.49

N#Cc1c(NC(=O)N/N=C/c2ccc(N3CCCC3)cc2)sc2c1CCCC2
inhibition [1]: 70.7% | pIC50 [2]: 4.16

N#Cc1c(NC(=O)N/N=C/c2cccc(OCc3ccccc3)c2)sc2c1CCCC2
inhibition [1]: 40.5%

Cc1cc(/C=N/NC(=O)Nc2sc3c(c2C#N)CCCC3)ccc1O
inhibition [1]: 72.2% | pIC50 [2]: 4.26

N#Cc1c(NC(=O)N/N=C/c2ccc(N(c3ccccc3)c3ccccc3)cc2)sc2c1CCCC2
inhibition [1]: 89.7% | pIC50 [2]: 4.87

COC(=O)c1ccc(/C=N/NC(=O)Nc2sc3c(c2C#N)CCCC3)cc1
inhibition [1]: 7.69%

N#Cc1c(NC(=O)N/N=C/c2ccc3c(c2)OC=CO3)sc2c1CCCC2
inhibition [1]: 35.7%

Cc1cccc(/C=N/NC(=O)Nc2sc3c(c2C#N)CCCC3)c1O
inhibition [1]: 29.5%

N#Cc1c(NC(=O)N/N=C/c2ccccc2)sc2c1CCCC2
inhibition [1]: 31.4%

N#Cc1c(NC(=O)N/N=C/c2cccc(O)c2O)sc2c1CCCC2
inhibition [1]: 68.2% | pIC50 [2]: 4.53

N#Cc1c(NC(=O)N/N=C/c2ccc(Oc3ccccc3)cc2)sc2c1CCCC2
inhibition [1]: 72.5% | pIC50 [2]: 4.66

CN(C)c1ccc(/C=N/NC(=O)Nc2sc3c(c2C#N)CCCC3)cc1
inhibition [1]: 67.2% | pIC50 [2]: 4.33

N#Cc1c(NC(=O)N/N=C/c2cc(O)cc(O)c2)sc2c1CCCC2
Activity [5]: Dose-Dependent Effect | inhibition [1]: 89.5% | Activity [6]: Active | inhibition [7]: Active | Activity [8]: Active | pIC50 [2]: 4.94 | viability at 100 µM [3]: 96.6% | viability at 100 µM [4]: 93.8%

N#Cc1c(NC(=O)N/N=C/c2ccc(O)c(O)c2)sc2c1CCCC2
Activity [5]: Dose-Dependent Effect | inhibition [1]: 86.3% | Activity [6]: Active | inhibition [7]: Active | Activity [8]: Active | pIC50 [2]: 5.03 | viability at 100 µM [3]: 96% | viability at 100 µM [4]: 92.7%

COc1cc(/C=N/NC(=O)Nc2sc3c(c2C#N)CCCC3)cc(OC)c1O
inhibition [1]: 0.7%

N#Cc1c(NC(=O)N/N=C/c2ccccc2OCc2ccccc2)sc2c1CCCC2
inhibition [1]: 48%

N#Cc1c(NC(=O)N/N=C/c2ccc([N+](=O)[O-])cc2)sc2c1CCCC2
inhibition [1]: 57.6% | pIC50 [2]: 4.17

N#Cc1c(NC(=O)N/N=C/c2ccc(O)c(O)c2O)sc2c1CCCC2
inhibition [1]: 85.9% | pIC50 [2]: 4.75

N#Cc1c(NC(=O)N/N=C/c2ccc(OCc3ccccc3)cc2)sc2c1CCCC2
inhibition [1]: 66.6% | pIC50 [2]: 4.58

N#Cc1c(NC(=O)N/N=C/c2cccc(O)c2)sc2c1CCCC2
inhibition [1]: 48.4%

N#Cc1c(NC(=O)N/N=C/c2ccc(O)cc2O)sc2c1CCCC2
inhibition [1]: 63.1% | pIC50 [2]: 4.47

CCc1ccc(/C=N/NC(=O)Nc2sc3c(c2C#N)CCCC3)cc1
inhibition [1]: 89.5% | pIC50 [2]: 4.60

Cc1ccc(/C=N/NC(=O)Nc2sc3c(c2C#N)CCCC3)cc1
inhibition [1]: 85.1% | pIC50 [2]: 4.53

Cc1cc(C)c(/C=N/NC(=O)Nc2sc3c(c2C#N)CCCC3)c(C)c1
inhibition [1]: 52.3% | pIC50 [2]: 4.30

C[C@H]1O[C@H](O[C@H]2[C@H](O)[C@@H](O)[C@@H](O[C@H]3[C@H](O)[C@@H](O)C(O)O[C@@H]3CO)O[C@@H]2CO)[C@H](O)[C@@H](O)[C@@H]1N[C@H]1C=C(CO)[C@@H](O)[C@H](O)[C@H]1O (stereo partly drawn) [ACARBOSE]
Activity [6]: Active | pIC50 [2]: 3.36

Cc1ccc(/C=N/NC(=O)Nc2sc3c(c2C#N)CCCC3)cc1C
inhibition [1]: 74.8% | pIC50 [2]: 4.41

N#Cc1c(NC(=O)N/N=C/c2ccc(O)cc2)sc2c1CCCC2
inhibition [1]: 81.7% | pIC50 [2]: 4.68

Cc1ccc(/C=N/NC(=O)Nc2sc3c(c2C#N)CCCC3)c(O)c1
inhibition [1]: 34.9%

Cc1cc(/C=N/NC(=O)Nc2sc3c(c2C#N)CCCC3)cc(C)c1O
inhibition [1]: 35.4%

N#Cc1c(NC(=O)N/N=C/c2ccccc2O)sc2c1CCCC2
inhibition [1]: 44.9%
